Experimental data published in patent publication US20220204918A1, “CELL CULTURE MEDIA COMPRISING KETO ACIDS” (MERCK PATENT GMBH, priority 2019, published 2022).
In brackets after ≈: the same amount, converted by molar mass. Structures can show the parent of a compound that is named as a salt.

What was measured:
[1] = Solubility in water at 25° C. (saturated solution, residual mass after infrared drying); assay type: physicochemical; conditions: for Solubility 25° C. in g/kg (corresponding keto acid) / Solubility (amino acid) / maximum solubilities obtained in water: water; for Solubility 25° C. in g/kg (corresponding keto acid) / Solubility (amino acid): 25° C.; for maximum solubilities obtained in water: separate experiments
Procedure: After sedimentation, the solution was dried using infrared (120° C., 120 min) and the residual mass was determined in g/kg.

[2] = physchem; conditions: for solubility at 10 min: 25 °C, pH 7, aqueous with cosolvent or surfactant or cyclodextrin, thermodynamic from solid
Procedure: Increasing amounts of the keto acids and salts thereof were added to a cell culture feed formulation (Cellvento® 4Feed, MilliporeSigma) depleted in Ile and Leu. Similarly, increasing amount of Ile and Leu were added to the same feed formulation as a control. The total concentration of this feed formulation was 125 g/L and the pH was 7.0+/−0.2. In small scale experiments, after each addition of either the amino acid or the keto acid, the feed was agitated for 10 mins and turbidity was measured. The experiments were performed at room temperature (25° C.).

[3] = test system: CHOK1GS suspension cell line expressing a human IgG1; test: 17-days fed-batch process with keto acid replacing amino acid in the feed; assay type: cell-based; conditions: for amount of NH3 produced compared to control: 17-days fed-batch
Procedure: For cell culture experiments, a CHOK1GS suspension cell line expressing a human IgG1, was used. Cells were cultivated in quadruplicate in Cellvento 4CHO medium (Merck Darmstadt, Germany) using 50 mL spin tubes with a starting culture volume of 30 mL and a seeding density of 2×10^5 cells/mL. Incubation was carried out at 37° C., 5% CO2, 80% humidity and an agitation of 320 rpm. The keto acids were added in the Feed (4Feed depleted in Ile and leu) instead of their respective amino acids. The pH of all the feeds was neutral (pH 7.0+/−0.2). The positive control contained the normal amino acids whereas the negative control contained the feed depleted in the respective amino acid and without addition of keto acid. Feeding was carried out at days 3, 5, 7, 10 and 14 at the following v/v ratios (3, 3, 6, 3 and 3%). Glucose was quantified daily and adjusted to 6 g/L using a 400 g/L glucose solution. The experiment was repeated at least 3 times.
The viable cell density (VCD) and viability were evaluated with a Vi-CELL XR (Beckman Coulter, Fullerton, Calif.). Metabolite concentrations were monitored using a Cedex Bio HT (Roche Diagnostics, Mannheim, Germany) based on spectrophotometric and turbidometric methods. Quantification of amino acids was carried out via UPLC after derivatization with the AccQ⋅TagUltra® reagent kit. Derivatization, chromatography and data analysis were carried out following the supplier recommendations (Waters, Milford, Mass.).
The productivity per cell per day was calculated daily by dividing the titer by the corrected integral VCD to take into account the dilution resulting from feeding. The overall specific productivity was determined by calculating the slope from the linear regression between titer and corrected integral VCD.

[4] = Feed stability: NH3 formed during 3 months storage (AUC of NH3 concentration); assay type: physicochemical; conditions: for less ammonia produced compared to control: 4° C.; for reduced ammonia level compared to control: RT
Procedure: Finally, the amount of ammonium ions formed during storage of the feed containing keto acids at 4° C. or RT was lower when compared to the feed containing the normal amino acids. To be able to evaluate the formation of the NH3 over the entire period of the stability study, the AUC of the NH3 concentration was calculated for the timeframe of 3 months to compare the conditions.

[5] = test system: CHOK1GS cell line; test: Serial passaging and batch experiment in Leu/Ile depleted Cellvento 4CHO with keto acids; assay type: cell-based; conditions: for initial keto acid concentration detected in form of the amino acid: day 3
From the text: To confirm that this is applicable in CHO systems, keto Leu or keto Ile were used as replacement for Leu and Ile respectively in a cell culture medium (Cellvento® 4CHO). A Leu/Ile depleted version of the formulation was produced and equimolar concentrations of keto Leu vs Leu and keto Ile vs Ile were used (FIG. 15). Cell growth and viability of a CHOK1GS cell line were monitored over several weeks in serial passaging experiments to make sure that the growth is not due to residual amounts of Leu or Ile. A batch experiment with a seeding density of 0.2 million cells/mL was designed and IgG production was measured over time. The production of the amino acids was followed with time using amino acids quantification in the spent medium.

[6] = Feed stability: change in color, AUC of absorbance 300-600 nm over 90 days; assay type: physicochemical
Procedure: The stability of a feed containing Ile and Leu (Cellvento® 4Feed) was compared to the stability of the same feed depleted in Ile/Leu and with supplementation of either keto Leu or keto Ile. The feeds were prepared according to the standard protocol. The final pH was 7.0+/−0.2 and the feeds were stored at 4° C. or RT protected or exposed to light. The change in color of the formulations were monitored during 90 days by measuring the absorbance in the range from 300 nm to 600 nm (intervals of 5 nm). Conditions were compared by calculating the area under the curve (AUC) over time (between D0 and D90) of the baseline corrected area under the curve of the absorbance scan (300 nm-600 nm).

[7] = Feed stability: precipitation during storage; assay type: physicochemical
Procedure: In addition, when using keto Leu instead of Leu in the feed, the precipitation of the feed was delayed. To observe precipitation, the 50 mL falcon tubes were turned back to see possible sedimentation on the bottom of the tube and pictures were taken. […] A complete inhibition of precipitation was not observed at RT exposed to light but the precipitation was delayed in the keto Leu condition. Whereas precipitation was observed starting at D49 for the control condition, initial precipitation appeared at D70 for the keto Leu condition.

[8] = test system: CHODG44 cell line expressing an IgG1; test: Fed-batch with keto Leu, CHODG44; assay type: cell-based
[9] = test system: CHOK1GS cell line; test: Batch experiments with higher seeding densities and different Leu/keto Leu ratios; assay type: cell-based
Procedure: In a similar way, batch experiments with higher cell seeding densities were performed in media containing different ratios of Leu/keto Leu to understand which ratios are preferable when starting with higher cell densities (FIG. 16). The analytic used was the same as described above.
Finally, batch experiments with higher cell densities were performed to determine whether keto Leu is readily available when starting with high seeding densities or if a minimum concentration of free leucine has to be present to support growth and productivity in these conditions. For this experiment, a CHOK1GS cell line was seeded at 0.3, 0.6 or 1.10^6 cells/mL in a medium containing 0, 25, 50, 75, or 100% of keto Leu, the rest being added in form of Leucine.

[10] = FB culture with other keto acids replacing their amino acid in the feed; assay type: cell-based
From the text: Other keto acids have been tested as replacement for their respective amino acids in FB experiments. A very similar behavior compared to Ile and Leu was observed when Val was replaced by keto Val in the feed (FIG. 17). Indeed, similar VCD and titer were observed compared to the positive control whereas the feed depleted in Val leads to a drastic decrease in the VCD, as well as a very low titer after day 7. […] Due to the structural similarity to keto Ile and keto Leu, the effect of keto Val on overall feed concentration and feed stability is similar to the other branched chain keto acids. 6× higher solubility when compared to Val was confirmed in water.
For phenylalanine (Phe) and its respective keto acid phenylpyruvate (FIG. 18), the amination reaction to build Phe in cell culture seemed to be slower than the amination reactions occurring for branched chain keto acids. […] Following that result, a condition where 2× the molar equivalent of Phe was used as a concentration of phenylpyruvate in the feed.

[11] = batch, seeding density 0.2 million cells/mL
[12] = Val replaced by keto Val in the feed
[13] = equivalent molar concentration (1×)

SMILES: CSCCC(=O)C(=O)O [Alpha keto gamma methylthiobutyric acid sodium salt]
- Solubility 25° C. in g/kg (corresponding keto acid) [1]: >500 g/kg

SMILES: CC[C@H](C)[C@H](N)C(=O)O [Isoleucine, reference compound]
- solubility at 10 min [2]: ~105 mM (≈ 13.8 mg/mL)
- Solubility (amino acid) [1]: 32.4 g/kg

SMILES: CC(C)C[C@H](N)C(=O)[O-].[Na+] [Leu sodium salt, reference compound]
- maximum solubilities obtained in water [1]: 86.0 g/kg

SMILES: CC(C)C[C@H](N)C(=O)O [Leucine, reference compound]
- solubility at 10 min [2]: ~90 mM (≈ 11.8 mg/mL)
- maximum solubilities obtained in water [1]: 22.1 g/kg
- Solubility (amino acid) [1]: 22.1 g/kg

SMILES: CSCC[C@H](N)C(=O)O [Methionine, reference compound]
- Solubility (amino acid) [1]: 52.9 g/kg

SMILES: N[C@@H](Cc1ccccc1)C(=O)O [Phenylalanine, reference compound]
- Solubility (amino acid) [1]: 26.8 g/kg

SMILES: CC(C)[C@H](N)C(=O)O [Valine, reference compound]
- Solubility (amino acid) [1]: 58.5 g/kg

SMILES: CCC(C)C(=O)C(=O)[O-].[Na+] (stereo not drawn) [keto Ile, 3-Methyl-2-oxopentanoic acid sodium salt]
- amount of NH3 produced compared to control [3]: significantly reduced
- allo-Ile peak in spent medium ([3]; Ile replaced with keto Ile): increased with time
- concentration of Ile in the spent medium vs positive control ([3]; Ile replaced with keto Ile): significantly lower
- times more soluble than the amino acid [2]: at least 6 times
- solubility at 10 min [2]: ≥ 635 mM
- less ammonia produced compared to control ([4]; light exposed): 24%
- less ammonia produced compared to control ([4]; light protected): 21%
- reduced ammonia level compared to control ([4]; light exposed): 25%
- reduced ammonia level compared to control ([4]; light protected): 28%
- IgG vs control [5, 11]: slightly impaired
- growth / performance vs control [5, 11]: slightly impaired
- initial keto acid concentration detected in form of the amino acid ([5]; spent medium): 21%
- initial keto Ile concentration detected in the form of allo-Ile ([5]; spent medium, up to day 10): 35%
- Solubility 25° C. in g/kg (corresponding keto acid) [1]: 480 g/kg
- decrease of AUC (change in color) vs control ([6]; 4° C., light exposed): 68%
- decrease of AUC (change in color) vs control ([6]; 4° C., light protected): 33%
- decrease of AUC (change in color) vs control ([6]; RT, light exposed): 38%
- decrease of AUC (change in color) vs control ([6]; RT, light protected): no decrease

SMILES: CC(C)CC(=O)C(=O)[O-].[Na+] [keto Leu, 4-Methyl-2-oxopentanoic acid sodium salt]
- amount of NH3 produced compared to control [3]: significantly reduced
- concentration of Leu in the spent medium vs positive control ([3]; Leu replaced with keto Leu): slightly lower
- amount and color intensity of precipitate vs control ([7]; RT light exposed, days after D70): lower
- precipitation ([7]; RT light protected): no precipitation
- IgG titer compared to control [8]: slightly lower
- Leu concentration in spent media vs control [8]: nearly similar
- VCD compared to control [8]: lower VCD
- overall specific productivity [8]: slightly increased
- keto Leu share at which highest VCD was observed ([9]; seeding 0.6.10^6 and 0.3.10^6 cells/mL): 50%
- titer between ratios keto Leu/Leu ([9]; seeding at 0.3 and 1.10^6 cells/mL): no significant difference
- IgG concentration between ratios keto Leu/Leu ([9]; seeding at 0.6.10^6 cells/mL): slight trend
- keto Leu exchange at which maximum VCD was observed ([9]; seeding density 1.10^6 cells/mL): 100%
- times more soluble than the amino acid [2]: 2.6 times
- solubility at 10 min [2]: 240 mM
- less ammonia produced compared to control ([4]; light exposed): 19%
- less ammonia produced compared to control ([4]; light protected): 10%
- reduced ammonia level compared to control ([4]; light exposed): 5%
- reduced ammonia level compared to control ([4]; light protected): 15%
- growth / performance vs control [5, 11]: comparable
- initial keto acid concentration detected in form of the amino acid ([5]; spent medium): 34%
- maximum solubilities obtained in water [1]: 313.7 g/kg
- Solubility 25° C. in g/kg (corresponding keto acid) [1]: 313.7 g/kg
- decrease of AUC (change in color) vs control ([6]; 4° C., light exposed): 8%
- decrease of AUC (change in color) vs control ([6]; 4° C., light protected): 27%
- decrease of AUC (change in color) vs control ([6]; RT, light exposed): 37%
- decrease of AUC (change in color) vs control ([6]; RT, light protected): 31%

SMILES: CC(C)C(=O)C(=O)[O-].[Na+] [keto Val, α-Ketoisovaleric acid sodium salt]
- NH3 concentration [10, 12]: lower
- VCD compared to positive control [10, 12]: similar
- titer compared to positive control [10, 12]: similar
- higher solubility when compared to Val ([1]; in water): 6 ×
- Solubility 25° C. in g/kg (corresponding keto acid) [1]: 362 g/kg

SMILES: O=C([O-])C(=O)Cc1ccccc1.[Na+] [phenylpyruvate, Phenylpyruvic acid sodium salt]
- Phe in the spent medium vs control ([10]; 2× the molar equivalent of Phe): very similar amount
- VCD vs control ([10]; 2× the molar equivalent of Phe): restore
- titer vs control ([10]; 2× the molar equivalent of Phe): restore
- Phe in the supernatant compared to negative control [10, 13]: more Phe
- final reduction of titer [10, 13]: 20%
- VCD vs control ([10]; equivalent molar concentration (1×), after day 5): significant lower VCD
- Solubility 25° C. in g/kg (corresponding keto acid) [1]: 72 g/kg
